{"source": "patent US20190203212A1", "about": "“INDUCIBLE DNA BINDING PROTEINS AND GENOME PERTURBATION TOOLS AND APPLICATIONS THEREOF” (Massachusetts Institute of Technology, priority 2013, published 2019)", "test_system": "Grm2", "experiment": "AAV-delivered TALE / LITE modulation of Grm2 mRNA in primary cortical neurons, qRT-PCR", "type": "cell-based, mouse", "settings": "neurons expressing only one LITE component", "description": "FIG. 18 depicts metabotropic glutamate receptor 2 (mGlur2) LITE activity in mouse cortical neuron culture. A mGluR2 targeting LITE was constructed via the plasmids pAAV-human Synapsin I promoter (hSyn)-HA-TALE(mGluR2)-CIB1 and pAAV-hSyn-CRY2PHR-VP64-2A-GFP. These fusion constructs were then packaged into adeno associated viral vectors (AAV). Additionally, AAV carrying hSyn-TALE-VP64-2A-GFP and GFP only were produced. Embryonic mouse (E16) cortical cultures were plated on Poly-L-lysine coated 24 well plates. After 5 days in vitro neural cultures were co-transduced with a mixture of TALE(mGluR2)-CIB1 and CRY2PHR-VP64 AAV stocks. Control samples were transduced with either TALE(mGluR2)-VP64 AAV or GFP AAV. 6 days after AAV transduction, experimental samples were stimulated using either of two light pulsing paradigms: 0.5 s per min and 0.25 sec per 30 sec. Neurons were stimulated for 24 h and harvested for qPCR analysis. All mGluR2 expression levels were normalized to the respective stimulated GFP control. […]\nLight stimulation was started 6 days after AAV transduction (DIV 11) with an intensity of 5 mW/cm^2, duty cycle of 0.8% (250 ms pulses at 0.033 Hz or 500 ms pulses at 0.016 Hz), 466 nm blue light for 24 h unless indicated otherwise in figure legends. […] Relative mRNA levels were measured by quantitative real-time PCR (qRT-PCR) using TaqMan probes as described above for Neuro 2a cells. […]"}
{"substance": "CRY2PHR-VP64: LITE effector component alone", "values": [{"measurement": "Grm2 mRNA versus GFP controls, single LITE component", "value": "did not significantly affect transcription"}]}
